Measurements as given in article PMC9760430, “A stapled chromogranin A-derived peptide homes in on tumors that express αvβ6 or αvβ8 integrins” (International Journal of Biological Sciences, 2023).
Read-outs that look alike come from different tables or passages of the source. Bridge positions count the residues as written; N and C are the ends. Square brackets hold non-standard residues; d marks the D form. Ends that are not written are not given here. Peptide text beside a SMILES is read from it. * marks the point of attachment. X2 = O=C(O)CN1CCN(CC(=O)O)CCN(CC(=O)NCCN2C(=O)CC(*)C2=O)CC1; Lys(N3) = [N-]=[N+]=NCCCC[C@H](N)C(=O)O; Pra = C#CC[C@H](N)C(=O)O

Key:
Human αvβ6 [1] = target: T1, Human αvβ6 (Homo sapiens, UniProt P06756+P18564); set-up: method as in PMID 31755501; settings: competition with isoDGR-peroxidase on αvβ6-coated plates; mean ± SE of n independent experiments; ref [25]; read-out: Ki (competitive integrin binding assay) Human αvβ6; cited from earlier work
T1 construct: purchased Bio-Techne

Human αvβ8 = target: T2, Human αvβ8 (Homo sapiens, UniProt P06756+P26012); set-up: method as in PMID 31755501; settings: competition with isoDGR-peroxidase; mean ± SE of n independent experiments; ref [25]; read-out: Ki (competitive integrin binding assay) Human αvβ8; cited from earlier work
T2 construct: purchased Bio-Techne

Human αvβ6 [2] = target: T1, Human αvβ6; assay: competitive integrin binding assay (isoDGR-peroxidase probe), αvβ6-coated plates; settings: competition with isoDGR-peroxidase on αvβ6-coated plates; mean ± SE of n independent experiments (n in the column beside)
Description: Peptides were prepared by chemical synthesis; their identity and purity were checked by mass spectrometry (MS) and reverse-phase HPLC analysis. The affinity of peptides for αvβ6-coated plates was determined by competitive binding assay using an isoDGR peptide (an RGD mimetic) labeled with peroxidase as a probe for the integrin-binding site. Cell adhesion assays were carried out as described previously.
Figure S2. Competitive binding of isoDGR-peroxidase conjugate with peptide 5, 5a and 2a to αvβ6-coated microtiter plates.
The competitive binding assay was performed as previously described, using an isoDGR peptide (an RGD mimetic) labeled with peroxidase (isoDGR-HRP) as a probe for the integrin-binding site. A representative experiment (mean ± SE of 3-4 technical replicates) is shown. The resulting Ki values are shown (mean ± SE of n=3-7 independent experiments, see also Table […]
(1 picture or pasted object on this page, not shown here)
Figure S10. Biochemical characterization of 5a- and 2a-NOTA conjugates. […]
C) Competitive binding of isoDGR-HRP to αvβ6-coated microtiter plates with peptides and peptide-NOTA conjugates, as measured by competitive ELISA. […]
D) Stability of 5a-NOTA after labeling with 18F, as determined by RP-HPLC analysis using an […]

T1 sequence (P06756 31-992 limits assumed): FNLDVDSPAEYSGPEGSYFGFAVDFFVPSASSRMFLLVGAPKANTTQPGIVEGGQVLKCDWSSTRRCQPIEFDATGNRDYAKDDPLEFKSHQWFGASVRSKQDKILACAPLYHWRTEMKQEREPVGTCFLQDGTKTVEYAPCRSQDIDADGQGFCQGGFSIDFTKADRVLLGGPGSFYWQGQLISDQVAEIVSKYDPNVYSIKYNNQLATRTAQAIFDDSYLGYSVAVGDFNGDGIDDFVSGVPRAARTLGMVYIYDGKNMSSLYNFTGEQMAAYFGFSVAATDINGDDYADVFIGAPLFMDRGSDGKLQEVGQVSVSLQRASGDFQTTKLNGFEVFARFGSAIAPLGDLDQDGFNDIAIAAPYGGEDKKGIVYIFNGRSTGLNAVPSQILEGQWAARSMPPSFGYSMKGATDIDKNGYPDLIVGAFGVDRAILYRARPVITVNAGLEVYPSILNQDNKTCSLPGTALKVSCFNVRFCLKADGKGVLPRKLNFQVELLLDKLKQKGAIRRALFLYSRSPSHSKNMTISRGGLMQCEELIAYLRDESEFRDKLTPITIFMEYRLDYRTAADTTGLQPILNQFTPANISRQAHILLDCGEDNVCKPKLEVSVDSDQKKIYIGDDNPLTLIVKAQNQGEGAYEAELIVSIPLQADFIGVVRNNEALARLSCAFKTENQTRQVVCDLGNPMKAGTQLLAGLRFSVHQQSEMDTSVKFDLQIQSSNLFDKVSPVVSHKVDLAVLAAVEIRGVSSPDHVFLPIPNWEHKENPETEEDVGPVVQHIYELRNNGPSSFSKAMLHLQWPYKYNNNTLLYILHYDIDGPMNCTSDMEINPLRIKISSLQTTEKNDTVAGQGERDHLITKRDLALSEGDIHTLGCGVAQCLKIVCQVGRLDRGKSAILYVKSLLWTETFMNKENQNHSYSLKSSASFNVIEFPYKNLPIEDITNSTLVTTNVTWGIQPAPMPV
T1 sequence (P18564 22-707 limits assumed): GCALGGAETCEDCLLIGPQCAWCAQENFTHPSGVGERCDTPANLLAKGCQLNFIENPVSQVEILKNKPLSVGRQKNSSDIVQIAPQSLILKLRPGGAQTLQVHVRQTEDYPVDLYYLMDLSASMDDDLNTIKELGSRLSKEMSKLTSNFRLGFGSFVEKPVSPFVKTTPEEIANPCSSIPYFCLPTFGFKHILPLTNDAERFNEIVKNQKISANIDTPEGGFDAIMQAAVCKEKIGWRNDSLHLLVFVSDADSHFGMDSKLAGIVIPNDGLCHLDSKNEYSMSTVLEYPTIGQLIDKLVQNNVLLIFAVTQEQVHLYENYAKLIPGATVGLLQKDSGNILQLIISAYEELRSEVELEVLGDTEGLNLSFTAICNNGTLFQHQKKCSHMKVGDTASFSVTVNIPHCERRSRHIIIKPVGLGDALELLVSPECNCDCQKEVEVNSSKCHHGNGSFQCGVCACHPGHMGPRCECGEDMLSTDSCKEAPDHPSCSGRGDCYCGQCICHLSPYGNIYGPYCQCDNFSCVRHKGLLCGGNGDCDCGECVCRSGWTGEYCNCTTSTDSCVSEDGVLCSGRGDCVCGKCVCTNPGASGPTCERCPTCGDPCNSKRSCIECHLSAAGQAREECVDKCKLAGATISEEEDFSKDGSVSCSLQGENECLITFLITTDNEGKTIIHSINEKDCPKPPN
T2 sequence (P06756 31-992 limits assumed): as the sequence (P06756 31-992 limits assumed) above
T2 sequence (P26012 43-684 limits assumed): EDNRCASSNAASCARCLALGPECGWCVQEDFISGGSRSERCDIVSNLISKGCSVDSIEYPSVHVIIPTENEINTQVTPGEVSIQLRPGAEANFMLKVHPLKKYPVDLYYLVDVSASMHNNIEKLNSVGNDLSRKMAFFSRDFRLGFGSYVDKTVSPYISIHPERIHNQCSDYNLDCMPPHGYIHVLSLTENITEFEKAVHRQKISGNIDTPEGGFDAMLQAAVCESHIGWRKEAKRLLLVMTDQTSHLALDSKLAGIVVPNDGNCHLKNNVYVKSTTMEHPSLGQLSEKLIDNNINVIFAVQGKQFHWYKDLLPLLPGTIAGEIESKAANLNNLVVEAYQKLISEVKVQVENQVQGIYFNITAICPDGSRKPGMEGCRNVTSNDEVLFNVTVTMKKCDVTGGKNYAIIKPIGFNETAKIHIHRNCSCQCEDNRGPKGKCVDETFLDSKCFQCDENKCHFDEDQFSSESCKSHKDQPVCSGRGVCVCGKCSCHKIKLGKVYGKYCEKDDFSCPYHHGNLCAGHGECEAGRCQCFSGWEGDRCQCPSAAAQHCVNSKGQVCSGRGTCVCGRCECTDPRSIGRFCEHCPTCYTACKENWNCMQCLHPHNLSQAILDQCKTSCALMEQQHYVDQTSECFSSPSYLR

Molecule | Ki (Human αvβ6 [1]) [nM] | Ki (Human αvβ8) [µM] | Ki (Human αvβ6 [2]) [nM]
CFETLRGEERILSILRHQNLLKELQD-NH2 [2a] | > 50000 | > 50 | –
CIRLDLELINFQSDLQHELLKTRLRG [5a-Scr] | – | – | > 200
CC[C@H](C)[C@H](NC(=O)[C@H](CCCNC(=N)N)NC(=O)[C@H](CCC(=O)O)NC(=O)[C@H](CCC(=O)O)NC(=O)CNC(=O)[C@H](CCCNC(=N)N)NC(=O)[C@H](CC(C)C)NC(=O)[C@@H](NC(=O)[C@H](CCC(=O)O)NC(=O)[C@H](Cc1ccccc1)NC(=O)[C@@H](N)CSC1CC(=O)N(CCNC(=O)CN2CCN(CC(=O)O)CCN(CC(=O)O)CC2)C1=O)[C@@H](C)O)C(=O)N[C@@H](CC(C)C)C(=O)N[C@@H](CO)C(=O)N[C@H](C(=O)N[C@@H](CC(C)C)C(=O)N[C@@H](CCCNC(=N)N)C(=O)N[C@@H](Cc1c[nH]cn1)C(=O)N[C@@H](CCC(N)=O)C(=O)N[C@@H](CC(N)=O)C(=O)N[C@@H](CC(C)C)C(=O)N[C@@H](CC(C)C)C(=O)N[C@@H](CCCCN)C(=O)N[C@@H](CCC(=O)O)C(=O)N[C@@H](CC(C)C)C(=O)N[C@@H](CCC(N)=O)C(=O)N[C@@H](CC(=O)O)C(N)=O)[C@@H](C)CC (some centres unmarked) [2a-NOTA] (H-C(X2)FETLRGEERILSILRHQNLLKELQD-NH2) | – | – | > 1000
ac-FETLRGDLRILSILRX1QNLX2KELQD-CONH2 (sidechain bridge or staple) (Ac-FETLRGDLRILSILR[Pra]QNL[Lys(N3)]KELQD-NH2; triazole 16-20; not fully specified) [compound 5, chromogranin A-derived peptide with RGDL motif and triazole-stapled alpha-helix, previously developed by the authors] | 0.6 ± 0.1 | – | –
